According to US20250108139A1, “PEPTIDE UREA DERIVATIVE, PHARMACEUTICAL COMPOSITION CONTAINING PEPTIDE UREA DERIVATIVE, AND APPLICATION OF PEPTIDE UREA DERIVATIVE” (BIVISION PHARMACEUTICALS, INC, priority 2022, published 2025):

Experiments:
[1] = tested on: PSMA-positive 22rv1 tumor-bearing mouse; assay: 177Lu labeling and animal biodistribution experiment, gamma counter; format: in vivo; details: 177Lu-labeled compound, 24 h after tail vein injection, n = 2
Procedure: Distribution in PSMA-positive tumor-bearing mouse tissues: Tumor-bearing animals (purchased from Shanghai Alamo Pharmaceutical Technology Co., Ltd.) were subcutaneously inoculated with 3×10^6 22rv1 cells (in 50% Matrigel, Corning) into the right shoulder region of 6-9 week old (Balb/c Nude) mouse. Once the tumors had grown to an appropriate size, ^177Lu-radiolabeled DB compounds were injected into the mouse via the tail vein (approximately 1.85 MBq-3.7 MBq/mouse, specific activity: 22423.82 Kbq/μg). After administration, the animals were euthanized using carbon dioxide inhalation at 24 hours. The blood and organs (blood, liver, kidney, muscle, tumor) were collected.
Blood was collected through the abdominal aorta and 100 μL was immediately quantified into designated centrifuge tubes (weighed). After collection, the organs were washed twice with deionized water, dried, placed in pre-weighed tubes, and weighed again to calculate the sample weight. Samples were measured on the day of collection. All blood and tissue samples were measured for radioactivity using a gamma counter. The results are shown in FIGS. 3, 4, 5, 6, 7, and Table 6.

PSMA protein = PSMA protein (Homo sapiens (Human), UniProt Q04609); assay: Affinity of DB compounds to PSMA protein using Biacore (Effect Example 3); details: Biacore 8K, 15° C., 1:1 binding model; pKD=−Log KD
Procedure: The affinity of DB compounds to PSMA protein was tested using the Biacore 8K (Cytiva) instrument to detect ligand binding to PSMA protein (Sino Biological). PSMA protein was captured on an SA chip. Before fixing the ligand (flow paths 1 and 2, flow rate of 10 μL/min), PSMA protein (10 μg/mL, flow rate of 5 μL/min, injection time of 600 s) was fixed on flow path 2 using a flow buffer. The sensor surface was adjusted by continuously injecting 1 M NaCl three times in 50 mM NaOH. After each ligand injection, additional cleaning was performed using isopropanol in 1 M NaCl and 50 mM NaOH (flow paths 1 and 2, flow rate of 10 μL/min, injection time of 60 s).
All compounds were dissolved in 100% DMSO and diluted to 10 mM, then further diluted to the appropriate highest concentration in the analysis buffer (PBS, PH 7.4, 1 mM TCEP ([…]), 0.05% P20, 2% DMSO). The analysis was conducted under the following conditions: 15° C. analysis temperature; analysis steps=all set to LMW kinetics; cycle type=single cycle (90 s contact time, 1800 s dissociation time, 30 μL/min flow rate, flow paths 1 and 2); detection in flow=path 2-1. Data evaluation was performed using Biacore Insight Evaluation Software, fitting the data to a 1:1 binding model.
Biacore results are shown in Table 5: pKD=−Log KD, wherein KD is the binding affinity of the compound to PSMA protein measured by Biacore. It is expressed by Kd (M)=Kd (1/s)/Ka (1/Ms). A indicates pKD>8; B indicates 7<pKD<8; C indicates 6<pKD<7; D indicates pKD<6.

[2] = Determination of Log P (n-octanol/water partition); format: physicochemical; details: 177Lu-labeled compound, mean of three tubes
Procedure: Three EP tubes were prepared, each containing 0.1 mL of saturated n-octanol and 80 μL of ultrapure water. Then, 20 μL (approximately 1 MBq) of the ^177Lu-labeled DB-13, DB-18, and DB-19 compound solutions were added to the respective tubes. After shaking evenly, the tubes were centrifuged at room temperature (2000 r/min, 5 minutes, centrifugation radius of 10 cm). From each tube, 100 μL was taken from both the lipid layer and the aqueous layer, and the radioactivity counts per minute for both phases were measured. The Log P values were calculated, and their mean values were taken as the final result.

albumin in rat plasma = assay: Plasma protein binding (PPB) test by ultrafiltration; format: in vitro ADME; details: 177Lu-labeled compound
Procedure: The labeled compounds ^177Lu-E-3, 177Lu-DB-13, 177Lu-DB-18, and ^177Lu-DB-19 (1 μCi) were prepared in a reaction solution by adding 50 μL of PBS to achieve a concentration of 20 μCi/mL. 50 μL of the 20 μCi/mL reaction solution was added to 200 μL of plasma, repeated for 3 tubes. The mixture was mixed well and incubated at room temperature for 10 minutes, then added to ultrafiltration tubes and centrifuged at 13000 rpm for 45 minutes. Following this, 50 μL of normal saline was added and the samples were centrifuged again for 15 minutes. The upper chamber and the filtrate were respectively counted for radioactivity.
PPB=[(upper chamber counts−background counts]/(filtrate counts+upper chamber counts−2*background counts)]*100%.

LNCaP cells = assay: Cell killing, CCK8 assay; format: cell-based; details: 177Lu-labeled, 45 μCi/mL, CCK8 on fifth day
Procedure: A. LNCaP cells in the logarithmic growth phase were prepared into a cell suspension, and the cell density was adjusted to 1×10^5 cells/mL. 1 mL of the cell suspension was seeded into each well of a 24-well cell culture plate. The cells were cultured for 24 hours in a 37° C. incubator.
B. The ^177Lu-labeled compound (^177Lu-E-3) was prepared in serum-containing culture medium at radioactive concentrations of 5, 15, and 45 μCi/mL (the unlabeled E-3 was prepared at a corresponding precursor concentration for 45 μCi/mL).
C. The experimental groups were treated with 1 mL/well of the above ^177Lu-labeled compound solutions, while the control group was treated with 1 mL/well of serum-containing culture medium.
D. The cells were cultured in the incubator for 24 hours, after which the medium was entirely replaced with fresh culture medium.
E. On the fifth day, cell proliferation in each group was monitored using an enhanced CCK8 assay kit.

[3] = target: PSMA-expressing cells (22Rv1) (Homo sapiens (Human), UniProt Q04609); assay: Competitive binding against radiolabeled PSMA-617 ligand on 22Rv1 cells; details: unlabeled compound vs radiolabeled PSMA-617 ligand, on ice 2 hours
Procedure: (1) 22Rv1 cells in the logarithmic growth phase were prepared into a cell suspension, and the cell density was adjusted to 1×10^4 cells/mL. 1 mL of the cell suspension was seeded into each well of a 24-well cell culture plate. The cells were cultured overnight in a 37° C. incubator.
(2) The cell culture medium was aspirated, and the cells were washed once with PBS. Then, 975 μL of additive-free medium was added.
(3) To each well, 25 μL of a fixed concentration of radiolabeled PSMA-617 ligand (final concentration in the medium: 2 μCi/mL) and different concentrations (final concentrations in the medium: 1000 ng/ml, 100 ng/mL, 10 ng/mL, 1 ng/mL, 0.1 ng/mL, 0.01 ng/mL, 0.001 ng/mL, 0 ng/ml) of the unlabeled test blocking compounds DB-18, DB-19, DB-13, E-3 were added.
(4) The cells were incubated on ice for 2 hours.
(5) The cells were washed three times with ice-cold PBS.
(6) The cells were lysed with 0.5 mL of 1 M sodium hydroxide, and washed twice with 0.5 mL PBS. The sodium hydroxide (0.5 mL) and PBS (0.5 mL×2) solutions were collected for uptake counting.

PSMA-expressing cells (22Rv1), sequence (Q04609 whole entry): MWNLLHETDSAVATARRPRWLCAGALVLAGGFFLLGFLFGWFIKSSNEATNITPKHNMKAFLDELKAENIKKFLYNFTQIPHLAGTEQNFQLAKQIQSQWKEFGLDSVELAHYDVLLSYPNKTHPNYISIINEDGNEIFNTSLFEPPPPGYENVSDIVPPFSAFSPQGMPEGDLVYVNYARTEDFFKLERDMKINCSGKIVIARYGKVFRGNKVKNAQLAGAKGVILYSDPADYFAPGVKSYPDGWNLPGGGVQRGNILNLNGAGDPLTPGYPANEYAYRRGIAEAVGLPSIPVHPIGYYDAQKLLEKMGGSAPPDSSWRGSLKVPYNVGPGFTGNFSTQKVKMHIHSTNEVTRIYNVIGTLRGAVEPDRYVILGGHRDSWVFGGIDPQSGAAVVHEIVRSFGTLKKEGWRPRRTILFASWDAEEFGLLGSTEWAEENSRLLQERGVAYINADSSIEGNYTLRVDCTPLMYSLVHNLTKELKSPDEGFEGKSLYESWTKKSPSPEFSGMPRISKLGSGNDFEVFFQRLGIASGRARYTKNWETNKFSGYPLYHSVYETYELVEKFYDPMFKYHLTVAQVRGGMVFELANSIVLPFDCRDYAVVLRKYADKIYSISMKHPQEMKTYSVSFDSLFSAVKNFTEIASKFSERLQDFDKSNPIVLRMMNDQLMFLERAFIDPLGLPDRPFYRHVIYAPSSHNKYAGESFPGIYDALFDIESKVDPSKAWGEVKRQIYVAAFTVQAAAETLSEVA
PSMA protein, sequence (Q04609 whole entry): as above

O=C(O)CC[C@H](NC(=O)NC(CCCCNC(=O)[C@H](Cc1ccc2ccccc2c1)NC(=O)[C@H]1CC[C@H](NC(=O)CCC(=O)NCC(=O)N2CN(C(=O)CNC(=O)CCC(=O)N[C@H]3CC[C@H](C(=O)N[C@@H](Cc4ccc5ccccc5c4)C(=O)NCCCC[C@H](NC(=O)N[C@@H](CCC(=O)O)C(=O)O)C(=O)O)CC3)CN(C(=O)CNC(=O)CN3CCN(CC(=O)O)CCN(CC(=O)O)CCN(CC(=O)O)CC3)C2)CC1)C(=O)O)C(=O)O (stereo partly shown) [DB-13]
Blood uptake [1]: 0.025 % ID/g
Kidney uptake [1]: 2.890 % ID/g
Liver uptake [1]: 0.115 % ID/g
Muscle uptake [1]: 0.060 % ID/g
Tumor uptake [1]: 16.195 % ID/g
Kd (PSMA protein): < 10 nM
logP [2]: -1.96
plasma protein binding ratio (albumin binding ratio) (albumin in rat plasma): 90.84%
cell-killing rate (LNCaP cells): 67%
IC50 [3]: 1.83 nM
